Measurements published in paper PMC8185074, “Anchor extension: a structure-guided approach to design cyclic peptides targeting enzyme active sites” (Nature Communications, 2021).
pIC50: −log10 of the molar value. Peptide text beside a SMILES is read from it.

How the values were obtained:
Type in all cases: biochemical
[1] = target: T1, HDAC2 (Homo sapiens, UniProt Q92769); assay: HDAC2 inhibition, full IC50 measurement (Reaction Biology; fluorogenic p53 peptide RHKK(Ac)AMC)
T1 construct: purchased Reaction Biology Corporation (assay run by the CRO)
T1 sequence (Q92769 whole entry): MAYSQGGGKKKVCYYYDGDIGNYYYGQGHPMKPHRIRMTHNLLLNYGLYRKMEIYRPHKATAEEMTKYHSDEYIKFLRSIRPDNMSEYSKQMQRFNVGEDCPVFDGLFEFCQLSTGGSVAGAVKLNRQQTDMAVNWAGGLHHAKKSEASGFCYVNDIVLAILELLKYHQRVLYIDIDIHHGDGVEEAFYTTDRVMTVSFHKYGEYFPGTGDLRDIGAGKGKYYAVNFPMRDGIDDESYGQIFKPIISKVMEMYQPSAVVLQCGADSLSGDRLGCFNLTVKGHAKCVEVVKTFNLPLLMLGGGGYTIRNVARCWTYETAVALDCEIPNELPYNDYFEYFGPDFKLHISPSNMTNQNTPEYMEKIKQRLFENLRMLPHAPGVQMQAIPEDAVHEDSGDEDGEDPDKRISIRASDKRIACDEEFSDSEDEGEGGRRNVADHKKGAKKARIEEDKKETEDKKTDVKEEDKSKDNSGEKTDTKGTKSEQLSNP
Procedure, shortened: (§1)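 Reaction: enzyme plus acoustically dispensed peptide inhibitor, 50 μM RHKK(Ac)AMC substrate, pH 8.0 Tris buffer with BSA and 1% DMSO, 1 h, 30 °C. Duplicates averaged.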

[2] = target: T2, HDAC1 (Homo sapiens, UniProt Q13547); assay: HDAC1 inhibition, full IC50 measurement (Reaction Biology; fluorogenic p53 peptide RHKK(Ac)AMC); settings: for HDAC1 activity raw data (signal): t1/t2 replicates
T2 construct: purchased Reaction Biology Corporation (assay run by the CRO)
T2 sequence (Q13547 whole entry): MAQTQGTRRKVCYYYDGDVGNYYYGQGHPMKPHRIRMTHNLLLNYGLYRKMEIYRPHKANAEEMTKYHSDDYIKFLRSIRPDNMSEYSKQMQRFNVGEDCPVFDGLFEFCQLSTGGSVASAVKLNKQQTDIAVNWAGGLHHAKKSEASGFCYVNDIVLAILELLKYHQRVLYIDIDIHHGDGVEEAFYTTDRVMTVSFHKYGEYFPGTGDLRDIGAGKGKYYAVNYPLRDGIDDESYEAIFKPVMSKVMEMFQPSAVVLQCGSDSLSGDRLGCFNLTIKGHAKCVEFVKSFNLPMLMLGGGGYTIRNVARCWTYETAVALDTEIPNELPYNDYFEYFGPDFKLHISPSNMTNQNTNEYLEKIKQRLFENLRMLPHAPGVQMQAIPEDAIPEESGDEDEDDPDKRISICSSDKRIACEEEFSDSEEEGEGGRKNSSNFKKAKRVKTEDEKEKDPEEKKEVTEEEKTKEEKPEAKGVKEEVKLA
Procedure, shortened: as §1

[3] = target: T1, HDAC2; assay: Initial HDAC2 IC50 estimate (BPS Biosciences HDAC fluorogenic assay kit); settings: Supplementary Dataset 2; read-out: HDAC2 activity (initial activity)
Procedure, shortened: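 Inhibition measured by kit-based fluorogenic HDAC activity assays, with each point in duplicate or triplicate. Values come from a full 1 µM–100 pM series (1:10 steps) or are range estimates from just 20 nM and 200 nM.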

SMILES: CC(C)[C@@H]1NC(=O)[C@H](CCCNC(=N)N)NC(=O)[C@@H](CC(=O)O)NC(=O)[C@H](CO)NC(=O)[C@@H](CO)NC(=O)[C@@H](CCC(=O)O)NC(=O)[C@H](Cc2ccc(O)cc2)NC(=O)[C@H](CCCCCS)NC1=O [des4.2.0, SHA-Tyr-dGlu-dSer-Ser-dAsp-Arg-Val] (HELM PEPTIDE1{R.V.[O=C([C@H](CCCCCS)N[*:1])[*:2]].Y.[dE].[dS].S.[dD]}$PEPTIDE1,PEPTIDE1,1:R1-8:R2$$$V2.0)
- HDAC2 activity raw data (signal) ([1]; Conc. 1.00E-05 M, t1): 20394
- HDAC2 activity raw data (signal) ([1]; Conc. 1.00E-05 M, t2): 38836
- HDAC2 activity raw data (signal) ([1]; Conc. 1.11E-06 M, t1): 480221
- HDAC2 activity raw data (signal) ([1]; Conc. 1.11E-06 M, t2): 475819
- HDAC2 activity raw data (signal) ([1]; Conc. 1.23E-07 M, t1): 1083936
- HDAC2 activity raw data (signal) ([1]; Conc. 1.23E-07 M, t2): 1073630
- HDAC2 activity raw data (signal) ([1]; Conc. 1.37E-08 M, t1): 1586330
- HDAC2 activity raw data (signal) ([1]; Conc. 1.37E-08 M, t2): 1580365
- HDAC2 activity raw data (signal) ([1]; Conc. 1.52E-09 M, t1): 1730890
- HDAC2 activity raw data (signal) ([1]; Conc. 1.52E-09 M, t2): 1745453
- HDAC2 activity raw data (signal) ([1]; Conc. 3.33E-06 M, t1): 208395
- HDAC2 activity raw data (signal) ([1]; Conc. 3.33E-06 M, t2): 205670
- HDAC2 activity raw data (signal) ([1]; Conc. 3.70E-07 M, t1): 726508
- HDAC2 activity raw data (signal) ([1]; Conc. 3.70E-07 M, t2): 767311
- HDAC2 activity raw data (signal) ([1]; Conc. 4.12E-08 M, t1): 1358432
- HDAC2 activity raw data (signal) ([1]; Conc. 4.12E-08 M, t2): 1262650
- HDAC2 activity raw data (signal) ([1]; Conc. 4.57E-09 M, t1): 1679024
- HDAC2 activity raw data (signal) ([1]; Conc. 4.57E-09 M, t2): 1646125
- HDAC2 activity raw data (signal) ([1]; Conc. 5.08E-10 M, t1): 1775852
- HDAC2 activity raw data (signal) ([1]; Conc. 5.08E-10 M, t2): 1816576
- pIC50 ([1]; figure legends, Supp. Table 1, read-out: HDAC2 IC50): 6.67
- pIC50 ([2]; Supp. Table 1): 7.24
- HDAC1 activity raw data (signal) ([2]; peptide conc. 1.00E-05 M, listed as des4.2.0_t1): 11630
- HDAC1 activity raw data (signal) ([2]; peptide conc. 1.00E-05 M, listed as des4.2.0_t2): 12995
- HDAC1 activity raw data (signal) ([2]; peptide conc. 1.11E-06 M, listed as des4.2.0_t1): 76613
- HDAC1 activity raw data (signal) ([2]; peptide conc. 1.11E-06 M, listed as des4.2.0_t2): 123433
- HDAC1 activity raw data (signal) ([2]; peptide conc. 1.23E-07 M, listed as des4.2.0_t1): 411114
- HDAC1 activity raw data (signal) ([2]; peptide conc. 1.23E-07 M, listed as des4.2.0_t2): 418507
- HDAC1 activity raw data (signal) ([2]; peptide conc. 1.37E-08 M, listed as des4.2.0_t1): 880188
- HDAC1 activity raw data (signal) ([2]; peptide conc. 1.37E-08 M, listed as des4.2.0_t2): 934141
- HDAC1 activity raw data (signal) ([2]; peptide conc. 1.52E-09 M, listed as des4.2.0_t1): 1108126
- HDAC1 activity raw data (signal) ([2]; peptide conc. 1.52E-09 M, listed as des4.2.0_t2): 1086586
- HDAC1 activity raw data (signal) ([2]; peptide conc. 3.33E-06 M, listed as des4.2.0_t1): 45545
- HDAC1 activity raw data (signal) ([2]; peptide conc. 3.33E-06 M, listed as des4.2.0_t2): 50745
- HDAC1 activity raw data (signal) ([2]; peptide conc. 3.70E-07 M, listed as des4.2.0_t1): 212662
- HDAC1 activity raw data (signal) ([2]; peptide conc. 3.70E-07 M, listed as des4.2.0_t2): 215699
- HDAC1 activity raw data (signal) ([2]; peptide conc. 4.12E-08 M, listed as des4.2.0_t1): 634511
- HDAC1 activity raw data (signal) ([2]; peptide conc. 4.12E-08 M, listed as des4.2.0_t2): 682055
- HDAC1 activity raw data (signal) ([2]; peptide conc. 4.57E-09 M, listed as des4.2.0_t1): 995614
- HDAC1 activity raw data (signal) ([2]; peptide conc. 4.57E-09 M, listed as des4.2.0_t2): 978150
- HDAC1 activity raw data (signal) ([2]; peptide conc. 5.08E-10 M, listed as des4.2.0_t1): 1100683
- HDAC1 activity raw data (signal) ([2]; peptide conc. 5.08E-10 M, listed as des4.2.0_t2): 1179300
- pIC50 [3]: 6.70

SMILES: N=C(N)NCCC[C@H]1NC(=O)[C@@H]2CCCN2C(=O)[C@H](CO)NC(=O)[C@@H](Cc2c[nH]cn2)NC(=O)[C@H](CCCCCS)NC(=O)[C@H](CCCCN)NC(=O)[C@H](Cc2ccc(O)cc2)NC(=O)[C@H]2CCCN2C(=O)[C@@H](CCC(N)=O)NC1=O [des3.1.0, SHA-dHis-Ser-Pro-dArg-dGln-dPro-Tyr-Lys] (HELM PEPTIDE1{K.[O=C([C@H](CCCCCS)N[*:1])[*:2]].[dH].S.P.[dR].[dQ].[dP].Y}$PEPTIDE1,PEPTIDE1,1:R1-9:R2$$$V2.0)
- HDAC2 activity raw data (signal) ([1]; Conc. 1.00E-05 M, t1): 59408
- HDAC2 activity raw data (signal) ([1]; Conc. 1.00E-05 M, t2): 72667
- HDAC2 activity raw data (signal) ([1]; Conc. 1.11E-06 M, t1): 433904
- HDAC2 activity raw data (signal) ([1]; Conc. 1.11E-06 M, t2): 343376
- HDAC2 activity raw data (signal) ([1]; Conc. 1.23E-07 M, t1): 657996
- HDAC2 activity raw data (signal) ([1]; Conc. 1.23E-07 M, t2): 873444
- HDAC2 activity raw data (signal) ([1]; Conc. 1.37E-08 M, t1): 729280
- HDAC2 activity raw data (signal) ([1]; Conc. 1.37E-08 M, t2): 826208
- HDAC2 activity raw data (signal) ([1]; Conc. 1.52E-09 M, t1): 589537
- HDAC2 activity raw data (signal) ([1]; Conc. 1.52E-09 M, t2): 821627
- HDAC2 activity raw data (signal) ([1]; Conc. 3.33E-06 M, t1): 217345
- HDAC2 activity raw data (signal) ([1]; Conc. 3.33E-06 M, t2): 176595
- HDAC2 activity raw data (signal) ([1]; Conc. 3.70E-07 M, t1): 565181
- HDAC2 activity raw data (signal) ([1]; Conc. 3.70E-07 M, t2): 599514
- HDAC2 activity raw data (signal) ([1]; Conc. 4.12E-08 M, t1): 715436
- HDAC2 activity raw data (signal) ([1]; Conc. 4.12E-08 M, t2): 918076
- HDAC2 activity raw data (signal) ([1]; Conc. 4.57E-09 M, t1): 697486
- HDAC2 activity raw data (signal) ([1]; Conc. 4.57E-09 M, t2): 737052
- HDAC2 activity raw data (signal) ([1]; Conc. 5.08E-10 M, t1): 616136
- HDAC2 activity raw data (signal) ([1]; Conc. 5.08E-10 M, t2): 674996
- HDAC1 activity raw data (signal) ([2]; peptide conc. 1.00E-05 M, listed as des3.1.0_t1): 22305
- HDAC1 activity raw data (signal) ([2]; peptide conc. 1.00E-05 M, listed as des3.1.0_t2): 40732
- HDAC1 activity raw data (signal) ([2]; peptide conc. 1.11E-06 M, listed as des3.1.0_t1): 248828
- HDAC1 activity raw data (signal) ([2]; peptide conc. 1.11E-06 M, listed as des3.1.0_t2): 188355
- HDAC1 activity raw data (signal) ([2]; peptide conc. 1.23E-07 M, listed as des3.1.0_t1): 589648
- HDAC1 activity raw data (signal) ([2]; peptide conc. 1.23E-07 M, listed as des3.1.0_t2): 563314
- HDAC1 activity raw data (signal) ([2]; peptide conc. 1.37E-08 M, listed as des3.1.0_t1): 723592
- HDAC1 activity raw data (signal) ([2]; peptide conc. 1.37E-08 M, listed as des3.1.0_t2): 777320
- HDAC1 activity raw data (signal) ([2]; peptide conc. 1.52E-09 M, listed as des3.1.0_t1): 783325
- HDAC1 activity raw data (signal) ([2]; peptide conc. 1.52E-09 M, listed as des3.1.0_t2): 856547
- HDAC1 activity raw data (signal) ([2]; peptide conc. 3.33E-06 M, listed as des3.1.0_t1): 76346
- HDAC1 activity raw data (signal) ([2]; peptide conc. 3.33E-06 M, listed as des3.1.0_t2): 86885
- HDAC1 activity raw data (signal) ([2]; peptide conc. 3.70E-07 M, listed as des3.1.0_t1): 352482
- HDAC1 activity raw data (signal) ([2]; peptide conc. 3.70E-07 M, listed as des3.1.0_t2): 387684
- HDAC1 activity raw data (signal) ([2]; peptide conc. 4.12E-08 M, listed as des3.1.0_t1): 725312
- HDAC1 activity raw data (signal) ([2]; peptide conc. 4.12E-08 M, listed as des3.1.0_t2): 693516
- HDAC1 activity raw data (signal) ([2]; peptide conc. 4.57E-09 M, listed as des3.1.0_t1): 787632
- HDAC1 activity raw data (signal) ([2]; peptide conc. 4.57E-09 M, listed as des3.1.0_t2): 874002
- HDAC1 activity raw data (signal) ([2]; peptide conc. 5.08E-10 M, listed as des3.1.0_t1): 778120
- HDAC1 activity raw data (signal) ([2]; peptide conc. 5.08E-10 M, listed as des3.1.0_t2): 831348
- pIC50 [3]: 5.85
